Consider 33 compounds from patent publication US10654847B2, “Substituted 2-(4-heterocyclylbenzyl)isoindolin-1-one analogs as positive allosteric modulators of the muscarinic acetylcholine receptor M1” (Vanderbilt University, priority 2011, dated 2020).

The experiment deals with T1, mAChR M1 (UniProt P11229).
T1 sequence (P11229 1-460): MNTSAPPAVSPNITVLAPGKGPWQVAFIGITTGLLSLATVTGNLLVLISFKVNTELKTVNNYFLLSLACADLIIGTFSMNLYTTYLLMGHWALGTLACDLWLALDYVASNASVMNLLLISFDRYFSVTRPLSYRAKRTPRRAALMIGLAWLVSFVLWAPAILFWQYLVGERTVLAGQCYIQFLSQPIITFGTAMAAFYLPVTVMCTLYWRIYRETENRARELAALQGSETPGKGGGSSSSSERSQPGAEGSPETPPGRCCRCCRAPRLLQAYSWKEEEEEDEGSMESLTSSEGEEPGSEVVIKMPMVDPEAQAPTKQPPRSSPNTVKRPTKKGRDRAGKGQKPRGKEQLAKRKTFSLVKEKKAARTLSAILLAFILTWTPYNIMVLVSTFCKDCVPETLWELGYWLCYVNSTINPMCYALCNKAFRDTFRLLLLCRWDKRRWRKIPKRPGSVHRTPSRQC
Put plainly: mAChR M1 cell-based functional assay (calcium mobilization, potentiation of EC20 acetylcholine response). To be noted: for Emax (%): % ACh maximum at 30 μM, mAChR M1-expressing CHO-K1 cells, calcium flux; for pEC50 / EC50: positive allosteric modulation of EC20 ACh response, mAChR M1 CHO-K1 cells; for pEC50: <5 estimated where no plateau; for EC50: >10 μM estimated where no plateau, read-out: EC50. As for the experimental part:
Chinese hamster ovary (CHO-K1) cells stably expressing rat (r)M1 were purchased from the American Type Culture Collection and cultured according to their indicated protocol. […] To make stable rM2, hM2, rM3, hM4, and rM4 cell lines for use in calcium mobilization assays, these cells also were stably transfected with a chimeric G-protein (Gqi5) (provided by B. R. Conklin, University of California, San Francisco) using Lipofectamine 2000. rM1, hM1, rM3, hM3, rM5, and hM5 cells were grown in Ham's F-12 medium containing 10% heat-inactivated fetal bovine serum (FBS), 20 mM HEPES, and 50 μg/mL G418 sulfate. rM2-Gqi5, hM2-Gqi5, and hM4-Gqi5 cells were grown in the same medium also containing 500 μg/mL Hygromycin B. Stable rM4-Gqi5 cells were grown in DMEM containing 10% heat-inactivated FBS, 20 mM HEPES, 400 μg/mL G418 sulfate, and 500 μg/mL Hygromycin B.
For high throughput measurement of agonist-evoked increases in intracellular calcium, CHO-K1 cells stably expressing muscarinic receptors were plated in growth medium lacking G418 and hygromycin at 15,000 cells/20 μL/well in Greiner 384-well black-walled, tissue culture (TC)-treated, clear-bottom plates (VWR). Cells were incubated overnight at 37° C. and 5% CO2. […] Compound master plates were formatted in an 11 point CRC format (1:3 dilutions) in 100% DMSO with a starting concentration of 10 mM using the BRAVO liquid handler (Agilent). Test compound CRCs were then transferred to daughter plates (240 nL) using the Echo acoustic plate reformatter (Labcyte, Sunnyvale, Calif.) and then diluted into assay buffer (40 μL) to a 2× stock using a Thermo Fisher Combi (Thermo Fisher Scientific, Waltham, Mass.).
Calcium flux was measured using the Functional Drug Screening System (FDSS) 6000 (Hamamatsu Corporation, Tokyo, Japan) as an increase in the fluorescent static ratio. Compounds were applied to cells (20 μL, 2×) using the automated system of the FDSS 6000 at 4 s into the 300 s protocol and the data were collected at 1 Hz. […] Agonist activity was analyzed as a concentration-dependent increase in calcium mobilization upon compound addition. Positive allosteric modulator activity was analyzed as a concentration-dependent increase in the EC20 acetylcholine response. Antagonist activity was analyzed as a concentration-dependent decrease in the EC80 acetylcholine response. Concentration-response curves were generated using a four-parameter logistical equation in XLfit curve fitting software (IDBS, Bridgewater, N.J.) for Excel (Microsoft, Redmond, Wash.) or Prism (GraphPad Software, Inc., San Diego, Calif.).
The above described assay was also operated in a second mode where an appropriate fixed concentration of the present compounds were added to the cells after establishment of a fluorescence baseline for about 3 seconds, and the response in cells was measured. […] Data were reduced as described above and the EC50 values for the agonist in the presence of test compound were determined by nonlinear curve fitting. A decrease in the EC50 value of the agonist with increasing concentrations of the present compounds (a leftward shift of the agonist concentration-response curve) is an indication of the degree of muscarinic positive allosteric modulation at a given concentration of the present compound. An increase in the EC50 value of the agonist with increasing concentrations of the present compounds (a rightward shift of the agonist concentration response curve) is an indication of the degree of muscarinic antagonism at a given concentration of the present compound. The second mode also indicates whether the present compounds also affect the maximum response of the muscarinic receptor to agonists.
The calcium mobilization assay was also used to determine “efficacy”.

SMILES strings stand for the structures.

For orientation: pEC50 means −log10 of the EC50, conventionally taken in molar units. For orientation: EC50 means the midpoint of the concentration-response curve.

On to `O=C1c2cccnc2CN1Cc1ccc(-c2cn3ccnc3cn2)cc1F` [Example B90], for which the “Emax (%)” value worked out at 53%, the pEC50 was below 5.00 and the concentration giving a half-maximal response (EC50) is above 10000 nM.

Regarding `O=C1c2cccnc2CN1Cc1ccc(-c2cnc3ccccn23)cc1F` [Example B93], the “Emax (%)” value is 65%, the pEC50 is 5.53 and the EC50 was 2950 nM.

On to `Cn1ccc2cc(-c3ccc(CN4Cc5ncccc5C4=O)c(F)c3)ccc21` [Example B127], for which the “Emax (%)” value was below 30%, the pEC50 is below 5.00 and the EC50 was above 10000 nM.

`O=C1c2ccccc2CN1Cc1ccc(-c2ccncc2)cc1F` [Example B11]: the “Emax (%)” value is reported as 71%, the pEC50 is given as 5.47 and the EC50 was 3400 nM.

As for `O=C1c2cccnc2CN1Cc1ccc(-c2cnc3ccccc3c2)cc1F` [Example B37], the “Emax (%)” value was found to be 31%, the negative logarithm of the EC50 (pEC50) is recorded as 6.41 and the EC50 was 389 nM.

As for `Cn1cc(-c2ccc(CN3Cc4cccnc4C3=O)c(F)c2)cn1` [Example B25], the “Emax (%)” value was 66%, the pEC50 was below 5.00 and the EC50 is above 10000 nM.

In the case of `Cn1ncc2ccc(-c3ccc(CN4Cc5ccccc5C4=O)c(F)c3)cc21` [Example B24], the “Emax (%)” value was 64%, the pEC50 is recorded as below 5.00 and the 50% effective concentration (EC50) is above 10000 nM.

`O=C1c2ncccc2CN1Cc1ccc(-c2cncc(Cl)c2)cc1F` [Example B73]: the “Emax (%)” value came to 38%, the negative logarithm of the EC50 (pEC50) was below 5.00 and the EC50 is above 10000 nM.

On to `O=C1c2ncccc2CN1Cc1ccc(-c2ccc3cnccc3c2)cc1Cl` [Example B69], for which the “Emax (%)” value is given as 52%, the negative logarithm of the EC50 (pEC50) is reported as 5.87 and the EC50 is 1350 nM.

As for `O=C1c2cccnc2CN1Cc1ccc(-c2ccc3nccn3c2)cc1F` [Example B57], the “Emax (%)” value was determined as 69%, the pEC50 is listed as 5.68 and the 50% effective concentration (EC50) was 2090 nM.

In the case of `Cn1cc2cc(Nc3ccc(CN4Cc5ncccc5C4=O)c(F)c3)ccc2n1` [Example B58], the “Emax (%)” value is on record as 66%, the pEC50 is 5.43 and the EC50 is 3720 nM.

`Cn1cc(-c2cnc(CN3Cc4ncccc4C3=O)c(F)c2)cn1` [Example B18]: the “Emax (%)” value stood at 40%, the pEC50 is reported as below 5.00 and the 50% effective concentration (EC50) is above 10000 nM.

As for `CN(C)c1ccc(-c2ccc(CN3Cc4cccnc4C3=O)c(F)c2)cn1` [Example B78], the “Emax (%)” value amounted to 48%, the pEC50 was 5.90 and the EC50 was 1260 nM.

With `O=C1c2cccnc2CN1Cc1ccc(-c2ccc3cn[nH]c3c2)cc1F` [Example B40], the “Emax (%)” value worked out at 70%, the pEC50 was 6.13 and the EC50 was 741 nM.

With `O=C1c2cccnc2CN1Cc1c(F)cc(-c2ccc3cnccc3c2)cc1F` [Example B97], the “Emax (%)” value worked out at 62%, the pEC50 is reported as 6.23 and the concentration for a half-maximal effect (EC50) was 589 nM.

On to `O=S1(=O)c2ccccc2CN1Cc1ccc(-c2cnns2)cc1` [Example B117], for which the “Emax (%)” value is listed as below 30%, the pEC50 is given as below 5.00 and the EC50 is above 10000 nM.

Turning to `Cn1nccc1-c1ccc(CN2Cc3ccccc3C2=O)c(F)c1` [Example B19], the “Emax (%)” value was determined as 40%, the negative-log EC50 (pEC50) is below 5.00 and the EC50 is above 10000 nM.

Regarding `Cn1cc2cc(-c3cccc(CN4Cc5ncccc5C4=O)c3F)ccc2n1` [Example B106], the “Emax (%)” value came to 41%, the pEC50 is on record as 5.42 and the EC50 was 3800 nM.

In the case of `COc1cc(-c2cccc3nn(C)cc23)ccc1CN1Cc2ncccc2C1=O` [Example B104], the “Emax (%)” value is recorded as 70%, the pEC50 is listed as 5.82 and the EC50 is 1510 nM.

Regarding `O=C1c2ncccc2CN1Cc1ccc(-c2ccc3ccncc3c2)cc1F` [Example B70], the “Emax (%)” value is listed as 59%, the pEC50 is 5.68 and the concentration for a half-maximal effect (EC50) was 2090 nM.

Take `Cn1cnc2ccc(-c3cc(F)c(CN4Cc5ncccc5C4=O)c(F)c3)cc21` [Example B82]: the “Emax (%)” value is listed as 72%, the negative logarithm of the EC50 (pEC50) is on record as 6.40 and the EC50 was 398 nM.

On to `O=C1c2ncccc2CN1Cc1ccc(-c2cccc3ncccc23)cc1F` [Example B77], for which the “Emax (%)” value is listed as 42%, the pEC50 is reported as 5.74 and the EC50 was 1820 nM.

For the compound `COc1cncc(-c2ccc(CN3Cc4ncccc4C3=O)c(F)c2)c1` [Example B43], the “Emax (%)” value was determined as 47%, the negative logarithm of the EC50 (pEC50) is listed as below 5.00 and the EC50 is above 10000 nM.

On to `Cn1cc2cc(-c3ccc(CN4Cc5cccnc5C4=O)c(F)c3)ccc2n1` [Example B71], for which the “Emax (%)” value worked out at 72%, the pEC50 is listed as 6.15 and the EC50 was 708 nM.

As for `CC1c2ccccc2C(=O)N1Cc1ccc(-c2cnn(C)c2)cc1F` (stereo not drawn) [Example B113], the “Emax (%)” value was below 30%, the pEC50 is below 5.00 and the EC50 was above 10000 nM.

With `O=S1(=O)c2ccccc2CN1Cc1ccc(-n2cccn2)cc1` [Example B115], the “Emax (%)” value was below 30%, the pEC50 is below 5.00 and the EC50 was above 10000 nM.

In the case of `Cn1cc(-c2cnc(CN3Cc4cccnc4C3=O)c(F)c2)cn1` [Example B20], the “Emax (%)” value was determined as 43%, the negative-log EC50 (pEC50) is on record as below 5.00 and the EC50 was above 10000 nM.

On to `O=C1c2cccnc2CN1Cc1c(F)cc(-c2ccc3c(c2)OCCO3)cc1F` [Example B94], for which the “Emax (%)” value turned out to be 36%, the pEC50 is on record as 6.71 and the EC50 was 195 nM.

Regarding `Cc1nc(-c2ccc(CN3Cc4ccccc4S3(=O)=O)cc2)no1` [Example B119], the “Emax (%)” value is on record as below 30%, the pEC50 is reported as below 5.00 and the EC50 was above 10000 nM.

On to `Cc1nnc(-c2ccc(CN3Cc4ccccc4S3(=O)=O)cc2)o1` [Example B123], for which the “Emax (%)” value is listed as below 30%, the pEC50 is listed as below 5.00 and the EC50 is above 10000 nM.

With `CN(C)c1ccc(-c2ccc(CN3Cc4cccnc4C3=O)c(Cl)c2)cn1` [Example B74], the “Emax (%)” value was 58%, the pEC50 is 5.73 and the half-maximal effective concentration (EC50) is 1860 nM.

`COc1ncccc1-c1ccc(CN2Cc3ncccc3C2=O)c(F)c1` [Example B33]: the “Emax (%)” value is given as 31%, the pEC50 is on record as below 5.00 and the EC50 was above 10000 nM.

As for `O=C1c2cccnc2CN1Cc1ccc(-c2cccc3cccnc23)cc1F` [Example B38], the “Emax (%)” value was 26%, the pEC50 is listed as below 5.00 and the EC50 was above 10000 nM.
